Assay type in all cases: cell-based
Assay [1] concerns the target T1, EGFR WT (Homo sapiens, UniProt P00533). Nature of the assay: Activity for inhibiting EGFR (Table A), EGFR WT. The note with it: read-out: EGFR WT, potency code (IC50).
Assay [2] deals with T2, EGFR V3 (Homo sapiens, UniProt P00533, DELINS30-297G).
T2 construct: expressed in transfected cells; host or cells: BaF3 (murine pro-B), retroviral pMXs-IRES-Blasticidin
Description: Activity for inhibiting EGFR (Table A), EGFR V3 (EGFR-Viii). To be noted: read-out: EGFR V3, potency code (IC50).

For assay [3], the target named is T3, HER2 S310F (Homo sapiens, UniProt P04626, S310F).
T3 construct: expressed in transfected cells; host or cells: BaF3 (murine pro-B)
Nature of the assay: Activity for inhibiting HER2 (Table B), HER2 S310F. The note with it: read-out: HER2 S310F, potency code (IC50). The protocol:
(§1) EC50 values were determined with the same application.

The target of assay [4] is T4, HER2 YVMA (Homo sapiens, UniProt P04626, INS775YVMA).
T4 construct: expressed in transfected cells; host or cells: BaF3 (murine pro-B)
Description: Activity for inhibiting HER2 (Table B), HER2 YVMA. To be noted: read-out: HER2 YVMA, potency code (IC50). The protocol:
as §1

For assay [5], the target named is T1, EGFR WT. Nature of the assay: BaF3 cell proliferation assay, EGFR WT (Table A). To be noted: potency code, 3 days, CellTiterGlo, read-out: EGFR WT (Activity for Inhibiting EGFR). Put shortly:
(§2)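 Steps: HEK 293T transfected with pMXs-IRES-Blasticidin kinase vector plus Gag-Pol and VSV-G; virus harvested at 24 and 48 hrs; BaF3 infected twice by centrifugation, Blasticidin-selected, then grown without IL-3. Proliferation EC50 measured.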
On the technique in general: ATP-based viability assays read luminescence as a measure of living cells.

For assay [6], the target named is T2, EGFR V3. Nature of the assay: BaF3 cell proliferation assay, EGFR V3 (Table A). The note with it: potency code, 3 days, CellTiterGlo, read-out: EGFR V3 (Activity for Inhibiting EGFR). Put shortly: as §2
For assay [7], the target named is T3, HER2 S310F. Nature of the assay: BaF3 cell proliferation assay, HER2 S310F (Table B). The note with it: potency code, 3 days, CellTiterGlo, read-out: HER2 S310F (Activity for Inhibiting HER2).
For assay [8], the target named is T4, HER2 YVMA. Nature of the assay: BaF3 cell proliferation assay, HER2 YVMA (Table B). To be noted: potency code, 3 days, CellTiterGlo, read-out: HER2 YVMA (Activity for Inhibiting HER2).

Structures are written as SMILES. pIC50: −log10 of the molar value. Where only a bound is given, the exact number is not on record here.

These results are taken from patent US11034672B1, “Tyrosine kinase inhibitor compositions, methods of making and methods of use” (Black Diamond Therapeutics, Inc., priority 2018, dated 2021).

T3 sequence (P04626 23-1255 S310F): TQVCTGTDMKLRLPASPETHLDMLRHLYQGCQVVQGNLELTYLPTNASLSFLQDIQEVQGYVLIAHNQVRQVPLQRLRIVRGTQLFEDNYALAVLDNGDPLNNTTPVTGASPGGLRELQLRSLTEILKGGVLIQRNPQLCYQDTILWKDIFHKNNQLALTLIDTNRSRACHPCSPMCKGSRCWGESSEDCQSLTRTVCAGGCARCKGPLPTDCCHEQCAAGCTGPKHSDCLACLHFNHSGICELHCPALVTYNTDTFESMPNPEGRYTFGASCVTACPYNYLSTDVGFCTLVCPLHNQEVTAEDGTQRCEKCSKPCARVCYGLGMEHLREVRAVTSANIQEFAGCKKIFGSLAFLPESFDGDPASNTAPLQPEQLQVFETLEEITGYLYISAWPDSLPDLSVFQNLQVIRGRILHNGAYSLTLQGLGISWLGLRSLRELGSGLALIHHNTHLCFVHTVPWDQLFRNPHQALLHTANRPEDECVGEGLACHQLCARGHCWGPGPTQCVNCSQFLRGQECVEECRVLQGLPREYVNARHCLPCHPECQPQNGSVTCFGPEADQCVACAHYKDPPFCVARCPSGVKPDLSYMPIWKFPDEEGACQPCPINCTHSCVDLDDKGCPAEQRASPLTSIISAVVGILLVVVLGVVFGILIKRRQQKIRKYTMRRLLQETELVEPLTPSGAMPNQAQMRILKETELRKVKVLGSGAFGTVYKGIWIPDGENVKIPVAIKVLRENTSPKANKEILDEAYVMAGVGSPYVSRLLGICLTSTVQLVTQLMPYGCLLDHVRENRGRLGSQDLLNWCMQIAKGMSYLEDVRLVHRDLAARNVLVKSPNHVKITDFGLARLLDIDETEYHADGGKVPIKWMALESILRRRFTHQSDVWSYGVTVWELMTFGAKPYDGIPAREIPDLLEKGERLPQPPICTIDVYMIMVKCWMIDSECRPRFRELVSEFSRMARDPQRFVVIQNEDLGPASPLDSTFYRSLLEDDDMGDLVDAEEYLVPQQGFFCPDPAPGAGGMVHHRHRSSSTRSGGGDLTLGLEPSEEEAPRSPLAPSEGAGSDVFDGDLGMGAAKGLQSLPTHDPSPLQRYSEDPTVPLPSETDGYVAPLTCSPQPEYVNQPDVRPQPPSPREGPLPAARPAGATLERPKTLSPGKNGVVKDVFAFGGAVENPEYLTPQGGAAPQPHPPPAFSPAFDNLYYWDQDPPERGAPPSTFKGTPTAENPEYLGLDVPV
T2 sequence (P00533 with tags, fused parts or gaps DELINS30-297G): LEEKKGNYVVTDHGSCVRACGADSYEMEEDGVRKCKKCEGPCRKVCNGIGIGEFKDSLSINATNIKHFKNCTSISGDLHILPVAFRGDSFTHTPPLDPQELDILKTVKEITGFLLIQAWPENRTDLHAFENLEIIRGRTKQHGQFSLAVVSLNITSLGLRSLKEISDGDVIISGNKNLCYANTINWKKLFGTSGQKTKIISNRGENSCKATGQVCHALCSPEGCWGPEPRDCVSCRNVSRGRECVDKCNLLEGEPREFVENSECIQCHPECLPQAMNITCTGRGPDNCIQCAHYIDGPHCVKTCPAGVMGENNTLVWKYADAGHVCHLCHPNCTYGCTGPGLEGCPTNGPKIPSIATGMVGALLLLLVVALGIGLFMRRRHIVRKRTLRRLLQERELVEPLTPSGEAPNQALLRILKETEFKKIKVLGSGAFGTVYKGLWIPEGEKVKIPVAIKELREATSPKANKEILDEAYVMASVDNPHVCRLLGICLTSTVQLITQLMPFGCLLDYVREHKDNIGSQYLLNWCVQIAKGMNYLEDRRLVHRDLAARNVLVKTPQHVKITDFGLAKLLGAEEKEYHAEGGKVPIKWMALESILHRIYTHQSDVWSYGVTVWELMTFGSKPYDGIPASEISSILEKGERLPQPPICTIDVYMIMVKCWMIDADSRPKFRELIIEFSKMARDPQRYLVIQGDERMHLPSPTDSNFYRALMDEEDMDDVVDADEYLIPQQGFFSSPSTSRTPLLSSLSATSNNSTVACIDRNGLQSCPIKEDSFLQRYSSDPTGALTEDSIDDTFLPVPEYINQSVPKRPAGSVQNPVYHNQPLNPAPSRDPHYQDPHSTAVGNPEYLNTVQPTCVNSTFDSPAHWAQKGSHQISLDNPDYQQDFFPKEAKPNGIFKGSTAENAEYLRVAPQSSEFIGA
T4 sequence (P04626 with tags, fused parts or gaps INS775YVMA): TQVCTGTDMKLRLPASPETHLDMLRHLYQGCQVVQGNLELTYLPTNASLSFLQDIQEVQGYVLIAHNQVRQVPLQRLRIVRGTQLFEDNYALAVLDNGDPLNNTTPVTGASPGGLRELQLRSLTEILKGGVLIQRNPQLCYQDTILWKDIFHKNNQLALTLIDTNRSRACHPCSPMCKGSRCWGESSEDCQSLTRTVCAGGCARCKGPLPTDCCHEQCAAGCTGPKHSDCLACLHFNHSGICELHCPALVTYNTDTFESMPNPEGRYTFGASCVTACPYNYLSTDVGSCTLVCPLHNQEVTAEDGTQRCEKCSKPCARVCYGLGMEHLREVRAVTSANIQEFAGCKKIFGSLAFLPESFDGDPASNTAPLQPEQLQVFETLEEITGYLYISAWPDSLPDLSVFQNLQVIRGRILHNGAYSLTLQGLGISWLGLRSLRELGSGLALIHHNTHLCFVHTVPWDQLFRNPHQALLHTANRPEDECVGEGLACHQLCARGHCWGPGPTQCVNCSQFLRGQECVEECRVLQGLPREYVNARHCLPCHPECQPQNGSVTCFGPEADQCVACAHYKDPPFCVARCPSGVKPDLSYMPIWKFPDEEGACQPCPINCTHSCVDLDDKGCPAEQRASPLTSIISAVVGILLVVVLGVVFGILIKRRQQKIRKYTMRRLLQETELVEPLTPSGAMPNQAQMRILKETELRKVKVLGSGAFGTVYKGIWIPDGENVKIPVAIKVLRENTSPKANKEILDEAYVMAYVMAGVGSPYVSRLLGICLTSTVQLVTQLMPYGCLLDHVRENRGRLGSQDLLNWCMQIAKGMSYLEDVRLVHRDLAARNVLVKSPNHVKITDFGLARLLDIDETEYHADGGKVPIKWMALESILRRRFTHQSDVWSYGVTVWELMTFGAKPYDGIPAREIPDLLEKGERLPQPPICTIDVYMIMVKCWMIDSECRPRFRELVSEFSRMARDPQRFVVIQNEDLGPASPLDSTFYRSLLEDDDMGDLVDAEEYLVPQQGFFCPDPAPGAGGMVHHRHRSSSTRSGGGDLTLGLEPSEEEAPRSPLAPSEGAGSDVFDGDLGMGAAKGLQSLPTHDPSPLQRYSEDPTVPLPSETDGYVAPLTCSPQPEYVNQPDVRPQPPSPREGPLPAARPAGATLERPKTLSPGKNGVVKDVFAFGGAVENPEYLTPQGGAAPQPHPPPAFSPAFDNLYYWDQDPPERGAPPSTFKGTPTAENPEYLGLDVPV
T1 sequence (P00533 25-1210 N540K): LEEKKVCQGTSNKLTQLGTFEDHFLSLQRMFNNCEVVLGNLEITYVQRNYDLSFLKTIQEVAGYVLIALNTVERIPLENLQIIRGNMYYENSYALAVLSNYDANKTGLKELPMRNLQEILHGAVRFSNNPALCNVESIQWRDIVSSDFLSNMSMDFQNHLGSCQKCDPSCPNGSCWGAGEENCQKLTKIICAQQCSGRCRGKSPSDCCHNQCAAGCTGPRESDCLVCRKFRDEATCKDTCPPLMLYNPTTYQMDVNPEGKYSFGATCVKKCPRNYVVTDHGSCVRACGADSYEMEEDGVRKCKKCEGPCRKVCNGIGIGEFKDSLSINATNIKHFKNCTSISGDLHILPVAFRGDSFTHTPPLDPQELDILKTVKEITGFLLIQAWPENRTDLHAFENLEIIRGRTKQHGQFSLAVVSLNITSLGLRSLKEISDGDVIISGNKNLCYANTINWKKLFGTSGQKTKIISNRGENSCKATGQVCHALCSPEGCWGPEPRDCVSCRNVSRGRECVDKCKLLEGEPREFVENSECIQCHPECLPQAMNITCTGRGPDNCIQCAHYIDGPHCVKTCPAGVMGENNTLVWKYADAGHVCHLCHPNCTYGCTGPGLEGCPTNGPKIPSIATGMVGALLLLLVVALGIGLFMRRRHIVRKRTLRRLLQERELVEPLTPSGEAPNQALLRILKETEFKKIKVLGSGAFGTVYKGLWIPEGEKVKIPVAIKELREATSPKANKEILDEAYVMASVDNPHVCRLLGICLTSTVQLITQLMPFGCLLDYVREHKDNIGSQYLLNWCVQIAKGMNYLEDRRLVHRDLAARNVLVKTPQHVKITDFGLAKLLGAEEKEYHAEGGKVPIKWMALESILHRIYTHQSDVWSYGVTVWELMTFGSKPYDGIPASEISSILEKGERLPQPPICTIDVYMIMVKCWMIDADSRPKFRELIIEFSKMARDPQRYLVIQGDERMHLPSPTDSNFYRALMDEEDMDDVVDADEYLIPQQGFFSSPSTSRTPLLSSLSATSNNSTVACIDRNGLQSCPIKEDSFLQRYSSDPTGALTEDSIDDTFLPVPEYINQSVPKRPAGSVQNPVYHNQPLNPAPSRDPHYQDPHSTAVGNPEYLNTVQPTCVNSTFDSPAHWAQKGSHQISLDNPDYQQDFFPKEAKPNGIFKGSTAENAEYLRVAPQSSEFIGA

Regarding `C=CC(=O)Nc1cc2c(Nc3cc(Cl)c(OCc4cccc(F)c4)cc3F)ncnc2cc1OCCN1CC2CCC(C1)O2` [compound 147], the pIC50 on EGFR WT [1] is 6.00 to 6.30; at EGFR V3 [2], 7.00 to 7.30; on HER2 S310F [3] it was 7.00 to 7.30; on HER2 YVMA [4] it was 6.52 to 6.70; at EGFR WT [5] it was 6.00 to 6.30; on EGFR V3 [6], 7.00 to 7.30. The pIC50 at HER2 S310F [7] was 7.00 to 7.30; on HER2 YVMA [8], 6.52 to 6.70.
Regarding `CC#CC(=O)Nc1cc2c(Nc3cc(Cl)c(OCc4cccc(F)c4)cc3F)ncnc2cc1OCCN1CC2CCC(C1)O2` [compound 148, N-(7-(2-(8-oxa-3-azabicyclo[3.2.1]octan-3-yl)ethoxy)-4-((5-chloro-2-fluoro-4-((3-fluorobenzyl)oxy)phenyl)amino)quinazolin-6-yl)but-2-ynamide], the pIC50 on EGFR WT [1] was 6.52 to 6.70; at EGFR V3 [2], 6.70 to 7.00; on HER2 S310F [3] it was 7.52 to 7.70; on HER2 YVMA [4], 7.00 to 7.30; on EGFR WT [5], 6.52 to 6.70; at EGFR V3 [6], 6.70 to 7.00. Further, the pIC50 is 7.52 to 7.70 on HER2 S310F [7] and 7.00 to 7.30 on HER2 YVMA [8].
As to `CC#CC(=O)Nc1cc2c(Nc3cc(Cl)c(OCc4cccc(F)c4)cc3F)ncnc2cc1OCCN1CCOCC1` [compound 149, N-(4-((5-chloro-2-fluoro-4-((3-fluorobenzyl)oxy)phenyl)amino)-7-(2-morpholinoethoxy)quinazolin-6-yl)but-2-ynamide], the pIC50 is 6.70 to 7.00 at EGFR WT [1]; 7.00 to 7.30 at EGFR V3 [2]; 7.70 to 8.00 at HER2 S310F [3]; 7.30 to 7.52 on HER2 YVMA [4]; 6.70 to 7.00 on EGFR WT [5]; 7.00 to 7.30 on EGFR V3 [6]. The pIC50 is 7.70 to 8.00 on HER2 S310F [7] and 7.30 to 7.52 at HER2 YVMA [8].
Turning to `CC#CC(=O)Nc1cc2c(Nc3cc(Cl)c(OCc4cccc(F)c4)cc3F)ncnc2cc1OCCCN1CCOCC1` [compound 150, N-(4-((5-chloro-2-fluoro-4-((3-fluorobenzyl)oxy)phenyl)amino)-7-(3-morpholinopropoxy)quinazolin-6-yl)but-2-ynamide], the pIC50 at EGFR WT [1] was 6.52 to 6.70; at EGFR V3 [2], 7.00 to 7.30; on HER2 S310F [3], 7.70 to 8.00; at HER2 YVMA [4], 7.30 to 7.52; on EGFR WT [5], 6.52 to 6.70; on EGFR V3 [6] it was 7.00 to 7.30. Also, the pIC50 is 7.70 to 8.00 on HER2 S310F [7] and 7.30 to 7.52 on HER2 YVMA [8].
Take `CC#CC(=O)Nc1cc2c(Nc3cc(Cl)c(OCc4cccc(F)c4)cc3F)ncnc2cc1O[C@@H]1CCN(C)C1` [compound 151, (R)-N-(4-((5-chloro-2-fluoro-4-((3-fluorobenzyl)oxy)phenyl)amino)-7-((1-methylpyrrolidin-3-yl)oxy)quinazolin-6-yl)but-2-ynamide]: the pIC50 is 6.70 to 7.00 on EGFR WT [1]; 7.00 to 7.30 at EGFR V3 [2]; 7.70 to 8.00 at HER2 S310F [3]; 6.70 to 7.00 on HER2 YVMA [4]; 6.70 to 7.00 at EGFR WT [5]; 7.00 to 7.30 on EGFR V3 [6]. Further, the figures for the pIC50 at HER2 S310F [7] and at HER2 YVMA [8] were 7.70 to 8.00 and 6.70 to 7.00, respectively.
As to `CC#CC(=O)Nc1cc2c(Nc3cc(Cl)c(OCc4cccc(F)c4)cc3F)ncnc2cc1OCCN1CC(OC)C1` [compound 152, N-(4-((5-chloro-2-fluoro-4-((3-fluorobenzyl)oxy)phenyl)amino)-7-(2-(3-methoxyazetidin-1-yl)ethoxy)quinazolin-6-yl)but-2-ynamide], the pIC50 is 6.70 to 7.00 at EGFR WT [1]; 7.30 to 7.52 on EGFR V3 [2]; 8.00 to 8.30 on HER2 S310F [3]; 7.00 to 7.30 on HER2 YVMA [4]; 6.70 to 7.00 at EGFR WT [5]; 7.30 to 7.52 at EGFR V3 [6]. In addition, the results for the pIC50 at HER2 S310F [7] and on HER2 YVMA [8] were 8.00 to 8.30 and 7.00 to 7.30, respectively.
For the molecule `C=CC(=O)Nc1cc2c(Nc3ccc(OCc4cccc(F)n4)c(Cl)c3)ncnc2cc1OCCCN1CCOCC1` [compound 153], the pIC50 at EGFR WT [1] is 6.00 to 6.30; on EGFR V3 [2] it was 7.30 to 7.52; at HER2 S310F [3], 7.70 to 8.00; at HER2 YVMA [4], 7.00 to 7.30; at EGFR WT [5], 6.00 to 6.30; at EGFR V3 [6] it was 7.30 to 7.52. Also, the pIC50 is 7.70 to 8.00 on HER2 S310F [7] and 7.00 to 7.30 on HER2 YVMA [8].
With `C=CC(=O)Nc1cc2c(Nc3ccc(OCc4cccc(F)n4)c(Cl)c3)ncnc2cc1OCCN1CCOCC1` [compound 154], the pIC50 was 6.00 to 6.30 at EGFR WT [1]; 7.30 to 7.52 on EGFR V3 [2]; 7.30 to 7.52 at HER2 S310F [3]; 6.70 to 7.00 at HER2 YVMA [4]; 6.00 to 6.30 at EGFR WT [5]; 7.30 to 7.52 on EGFR V3 [6]. For the same molecule, the pIC50 was 7.30 to 7.52 at HER2 S310F [7] and 6.70 to 7.00 on HER2 YVMA [8].
With `C=CC(=O)Nc1cc2c(Nc3ccc(OCc4cccc(F)n4)c(Cl)c3)ncnc2cc1OCCCN1CC(OC)C1` [compound 155], the pIC50 is 6.30 to 6.52 on EGFR WT [1]; 7.30 to 7.52 on EGFR V3 [2]; 7.70 to 8.00 at HER2 S310F [3]; 7.30 to 7.52 on HER2 YVMA [4]; 6.30 to 6.52 at EGFR WT [5]; 7.30 to 7.52 on EGFR V3 [6]. For the same molecule, the pIC50 at HER2 S310F [7] was 7.70 to 8.00; on HER2 YVMA [8], 7.30 to 7.52.
With `C=CC(=O)Nc1cc2c(Nc3ccc(OCc4cccc(F)n4)c(Cl)c3)ncnc2cc1OCCN1CC2CCC(C1)O2` [compound 156], the pIC50 was below 6.00 at EGFR WT [1]; 7.00 to 7.30 at EGFR V3 [2]; 7.30 to 7.52 at HER2 S310F [3]; 6.52 to 6.70 on HER2 YVMA [4]; below 6.00 on EGFR WT [5]; 7.00 to 7.30 at EGFR V3 [6]. In addition, the pIC50 is 7.30 to 7.52 at HER2 S310F [7] and 6.52 to 6.70 on HER2 YVMA [8].
Take `C=CC(=O)Nc1cc2c(Nc3ccc(OCc4cccc(F)n4)c(Cl)c3)ncnc2cc1OCCN1CC(OC)C1` [compound 157]: the pIC50 at EGFR WT [1] was 6.00 to 6.30; on EGFR V3 [2], 7.30 to 7.52; at HER2 S310F [3], 7.30 to 7.52; at HER2 YVMA [4] it was 6.30 to 6.52; on EGFR WT [5], 6.00 to 6.30; at EGFR V3 [6], 7.30 to 7.52. The pIC50 on HER2 S310F [7] is 7.30 to 7.52; at HER2 YVMA [8] it was 6.30 to 6.52.
For the molecule `C=CC(=O)Nc1cc2c(Nc3ccc(OCc4cccc(F)n4)c(Cl)c3)ncnc2cc1OCCN1CCN(C)CC1` [compound 158], the pIC50 is 6.70 to 7.00 on EGFR WT [1]; 7.30 to 7.52 at EGFR V3 [2]; 7.30 to 7.52 on HER2 S310F [3]; 6.70 to 7.00 on HER2 YVMA [4]; 6.70 to 7.00 on EGFR WT [5]; 7.30 to 7.52 at EGFR V3 [6]. The results for the pIC50 on HER2 S310F [7] and on HER2 YVMA [8] were 7.30 to 7.52 and 6.70 to 7.00, respectively.
Turning to `C=CC(=O)Nc1cc2c(Nc3ccc(OCc4cccc(F)c4)c(Cl)c3)ncnc2cc1OCCCN1C[C@@H]2C[C@H]1CO2` [compound 159], the pIC50 is 6.30 to 6.52 on EGFR WT [1]; 6.70 to 7.00 on EGFR V3 [2]; 7.00 to 7.30 at HER2 S310F [3]; 6.30 to 6.52 at HER2 YVMA [4]; 6.30 to 6.52 at EGFR WT [5]; 6.70 to 7.00 at EGFR V3 [6]. Further, the pIC50 at HER2 S310F [7] is 7.00 to 7.30; at HER2 YVMA [8], 6.30 to 6.52.
Consider `C=CC(=O)Nc1cc2c(Nc3ccc(OCc4cccc(F)c4)c(Cl)c3)ncnc2cc1OCCCN1C[C@H]2C[C@@H]1CO2` [compound 160], for which the pIC50 at EGFR WT [1] was 6.30 to 6.52; at EGFR V3 [2], 6.70 to 7.00; at HER2 S310F [3], 6.70 to 7.00; at HER2 YVMA [4], 6.30 to 6.52; on EGFR WT [5] it was 6.30 to 6.52; on EGFR V3 [6] it was 6.70 to 7.00. For the same molecule, the pIC50 at HER2 S310F [7] was 6.70 to 7.00; on HER2 YVMA [8] it was 6.30 to 6.52.
On to `C=CC(=O)Nc1cc2c(Nc3ccc(OCc4cccc(F)n4)c(Cl)c3)ncnc2cc1OCCCN1C[C@@H]2C[C@H]1CO2` [compound 161], for which the pIC50 on EGFR WT [1] is 6.52 to 6.70; at EGFR V3 [2] it was 7.30 to 7.52; on HER2 S310F [3] it was 7.30 to 7.52; at HER2 YVMA [4], 6.70 to 7.00; at EGFR WT [5], 6.52 to 6.70; at EGFR V3 [6] it was 7.30 to 7.52. Besides, the figures for the pIC50 on HER2 S310F [7] and on HER2 YVMA [8] were 7.30 to 7.52 and 6.70 to 7.00, respectively.
